Results from patent publication US9695155B2, “Herbicidal substituted pyrimidinyloxy benzene compounds” (E. I. DU PONT DE NEMOURS AND COMPANY, priority 2013, dated 2017).

Legend:
barnyardgrass [1] = assay: Test A preemergence; type: in vivo, Echinochloa crus-galli; settings: for Barnyardgrass plant response rating: 1000 g ai/ha, 0 to 100 scale, 0 no effect, 100 complete control, approx. 10 days
Method in brief: (§1)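 Visual injury scored 0–100 (100 = complete control) against untreated controls about 10 days after treatment in a greenhouse. Test chemicals, formulated with surfactant in non-phytotoxic solvent, were sprayed on soil preemergence or on 2-10 cm, one- to two-leaf plants postemergence.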

kochia [2] = assay: Test A preemergence; type: in vivo, Kochia scoparia; settings: for Kochia plant response rating: 1000 g ai/ha, 0 to 100 scale, 0 no effect, 100 complete control, approx. 10 days
Method in brief: as §1

ragweed [3] = assay: Test A preemergence; type: in vivo, Ambrosia elatior; settings: for Ragweed plant response rating: 1000 g ai/ha, 0 to 100 scale, 0 no effect, 100 complete control, approx. 10 days
Method in brief: as §1

Italian ryegrass [4] = assay: Test A preemergence; type: in vivo, Lolium multiflorum; settings: for Ryegrass, Italian plant response rating: 1000 g ai/ha, 0 to 100 scale, 0 no effect, 100 complete control, approx. 10 days
Method in brief: as §1

giant foxtail [5] = assay: Test A preemergence; type: in vivo, Setaria faberii; settings: for Foxtail, Giant plant response rating: 1000 g ai/ha, 0 to 100 scale, 0 no effect, 100 complete control, approx. 10 days
Method in brief: as §1

pigweed [6] = assay: Test A preemergence; type: in vivo, Amaranthus retroflexus; settings: for Pigweed plant response rating: 1000 g ai/ha, 0 to 100 scale, 0 no effect, 100 complete control, approx. 10 days
Method in brief: as §1

barnyardgrass [7] = assay: Test A postemergence; type: in vivo, Echinochloa crus-galli; settings: 0 to 100 scale, 0 no effect, 100 complete control
Method in brief: as §1

kochia [8] = assay: Test A postemergence; type: in vivo, Kochia scoparia; settings: 0 to 100 scale, 0 no effect, 100 complete control
Method in brief: as §1

ragweed [9] = assay: Test A postemergence; type: in vivo, Ambrosia elatior; settings: 0 to 100 scale, 0 no effect, 100 complete control
Method in brief: as §1

Italian ryegrass [10] = assay: Test A postemergence; type: in vivo, Lolium multiflorum; settings: 0 to 100 scale, 0 no effect, 100 complete control
Method in brief: as §1

giant foxtail [11] = assay: Test A postemergence; type: in vivo, Setaria faberii; settings: 0 to 100 scale, 0 no effect, 100 complete control
Method in brief: as §1

pigweed [12] = assay: Test A postemergence; type: in vivo, Amaranthus retroflexus; settings: 0 to 100 scale, 0 no effect, 100 complete control
Method in brief: as §1

wheat = assay: Test A postemergence; type: in vivo, Triticum aestivum; settings: 0 to 100 scale, 0 no effect, 100 complete control
Method in brief: as §1

corn = assay: Test A postemergence; type: in vivo, Zea mays; settings: 0 to 100 scale, 0 no effect, 100 complete control
Method in brief: as §1

blackgrass = assay: Test A postemergence; type: in vivo, Alopecurus myosuroides; settings: 0 to 100 scale, 0 no effect, 100 complete control
Method in brief: as §1

galium = assay: Test A postemergence; type: in vivo, Galium aparine; settings: 0 to 100 scale, 0 no effect, 100 complete control
Method in brief: as §1

rice = assay: Test B flooded paddy test; type: in vivo, Oryza sativa; settings: Flood, 250 g ai/ha; 0 to 100 scale where 0 is no effect and 100 is complete control
Method in brief: (§2)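 Post-emergence paddy-water application at the 2-leaf stage, with 3 cm flood kept for the whole test. Response was judged visually relative to controls after 13 to 15 greenhouse days, 0 indicating no effect and 100 complete control.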

sedge, umbrella = assay: Test B flooded paddy test; type: in vivo, Cyperus difformis; settings: Flood, 250 g ai/ha; 0 to 100 scale where 0 is no effect and 100 is complete control
Method in brief: as §2

Heteranthera limosa = assay: Test B flooded paddy test; type: in vivo; settings: Flood, 250 g ai/ha; 0 to 100 scale where 0 is no effect and 100 is complete control
Method in brief: as §2

barnyardgrass [13] = assay: Test B flooded paddy test; type: in vivo, Echinochloa crus-galli; settings: Flood, 250 g ai/ha; 0 to 100 scale where 0 is no effect and 100 is complete control
Method in brief: as §2

[14] = 31 g ai/ha, 0 to 100 scale where 0 is no effect and 100 is complete control, visual, approximately 10 days

## FC(F)(F)c1cnn(-c2c(Oc3ncc(Cl)cn3)cccc2-c2ncon2)c1 [Compound 279]
Barnyardgrass [1]; [14]
  Plant response rating, Barnyardgrass: 0
Barnyardgrass [1]; 125 g ai/ha
  Barnyardgrass plant response rating (0 to 100 scale, 0 is no effect, 100 is complete control): 10
Kochia [2]; [14]
  Plant response rating, Kochia: 40
Kochia [2]; 125 g ai/ha
  Kochia plant response rating (0 to 100 scale): 90
Ragweed [3]; [14]
  Plant response rating, Ragweed: 0
Ragweed [3]; 125 g ai/ha
  Ragweed plant response rating (0 to 100 scale): 10
Italian ryegrass [4]; [14]
  Plant response rating, Ryegrass, Italian: 0
Italian ryegrass [4]; 125 g ai/ha
  Ryegrass, Italian plant response rating (0 to 100 scale): 0
Giant foxtail [5]; [14]
  Plant response rating, Foxtail, Giant: 40
Giant foxtail [5]; 125 g ai/ha
  Foxtail, Giant plant response rating (0 to 100 scale): 50
Pigweed [6]; [14]
  Plant response rating, Pigweed: 90
Pigweed [6]; 125 g ai/ha
  Pigweed plant response rating (0 to 100 scale): 100
Barnyardgrass [7]; 31 g ai/ha
  Plant response rating, Barnyardgrass: 0
Barnyardgrass [7]; 125 g ai/ha
  Plant response rating, Barnyardgrass: 30
Kochia [8]; 31 g ai/ha
  Plant response rating, Kochia: 40
Kochia [8]; 125 g ai/ha
  Plant response rating, Kochia: 90
Ragweed [9]; 31 g ai/ha
  Plant response rating, Ragweed: 20
Ragweed [9]; 125 g ai/ha
  Plant response rating, Ragweed: 40
Italian ryegrass [10]; 31 g ai/ha
  Plant response rating, Ryegrass, Italian: 0
Italian ryegrass [10]; 125 g ai/ha
  Plant response rating, Ryegrass, Italian: 50
Giant foxtail [11]; 31 g ai/ha
  Plant response rating, Foxtail, Giant: 10
Giant foxtail [11]; 125 g ai/ha
  Plant response rating, Foxtail, Giant: 50
Pigweed [12]; 31 g ai/ha
  Plant response rating, Pigweed: 50
Pigweed [12]; 125 g ai/ha
  Plant response rating, Pigweed: 80
wheat; 31 g ai/ha
  Plant response rating, Wheat: 0
wheat; 125 g ai/ha
  Plant response rating, Wheat: 30
corn; 31 g ai/ha
  Plant response rating, Corn: 10
corn; 125 g ai/ha
  Plant response rating, Corn: 10
blackgrass; 31 g ai/ha
  Plant response rating, Blackgrass: 10
blackgrass; 125 g ai/ha
  Plant response rating, Blackgrass: 40
galium; 31 g ai/ha
  Plant response rating, Galium: 20
galium; 125 g ai/ha
  Plant response rating, Galium: 80
rice
  Plant response rating, Rice: 50
sedge, umbrella
  Plant response rating, Sedge, Umbrella: 90
Heteranthera limosa
  Plant response rating, Ducksalad: 90
Barnyardgrass [13]
  Plant response rating, Barnyardgrass: 75

## NS(=O)(=O)c1cnn(-c2ccccc2Oc2ncc(Cl)cn2)c1 [Compound 282]
Barnyardgrass [1]
  Barnyardgrass plant response rating: 90
Kochia [2]
  Kochia plant response rating: 100
Ragweed [3]
  Ragweed plant response rating: 100
Italian ryegrass [4]
  Ryegrass, Italian plant response rating: 50
Giant foxtail [5]
  Foxtail, Giant plant response rating: 100
Pigweed [6]
  Pigweed plant response rating: 100
Barnyardgrass [7]; 1000 g ai/ha
  Plant response rating, Barnyardgrass: 90
Kochia [8]; 1000 g ai/ha
  Plant response rating, Kochia: 90
Ragweed [9]; 1000 g ai/ha
  Plant response rating, Ragweed: 100
Italian ryegrass [10]; 1000 g ai/ha
  Plant response rating, Ryegrass, Italian: 80
Giant foxtail [11]; 1000 g ai/ha
  Plant response rating, Foxtail, Giant: 60
Pigweed [12]; 1000 g ai/ha
  Plant response rating, Pigweed: 80
wheat; 1000 g ai/ha
  Plant response rating, Wheat: 0
corn; 1000 g ai/ha
  Plant response rating, Corn: 50
blackgrass; 1000 g ai/ha
  Plant response rating, Blackgrass: 100
galium; 1000 g ai/ha
  Plant response rating, Galium: 30
rice
  Plant response rating, Rice: 0
sedge, umbrella
  Plant response rating, Sedge, Umbrella: 0
Heteranthera limosa
  Plant response rating, Ducksalad: 0
Barnyardgrass [13]
  Plant response rating, Barnyardgrass: 0

## Cc1noc(-c2cccc(Oc3ncc(Cl)cn3)c2-n2cc(C(F)(F)F)cn2)n1 [Compound 299]
Barnyardgrass [1]
  Barnyardgrass plant response rating: 90
Kochia [2]
  Kochia plant response rating: 100
Ragweed [3]
  Ragweed plant response rating: 70
Italian ryegrass [4]
  Ryegrass, Italian plant response rating: 60
Giant foxtail [5]
  Foxtail, Giant plant response rating: 100
Pigweed [6]
  Pigweed plant response rating: 100
Barnyardgrass [7]; 1000 g ai/ha
  Plant response rating, Barnyardgrass: 80
Kochia [8]; 1000 g ai/ha
  Plant response rating, Kochia: 70
Ragweed [9]; 1000 g ai/ha
  Plant response rating, Ragweed: 30
Italian ryegrass [10]; 1000 g ai/ha
  Plant response rating, Ryegrass, Italian: 70
Giant foxtail [11]; 1000 g ai/ha
  Plant response rating, Foxtail, Giant: 90
Pigweed [12]; 1000 g ai/ha
  Plant response rating, Pigweed: 100
wheat; 1000 g ai/ha
  Plant response rating, Wheat: 20
corn; 1000 g ai/ha
  Plant response rating, Corn: 70
blackgrass; 1000 g ai/ha
  Plant response rating, Blackgrass: 80
galium; 1000 g ai/ha
  Plant response rating, Galium: 80
rice
  Plant response rating, Rice: 15
sedge, umbrella
  Plant response rating, Sedge, Umbrella: 70
Heteranthera limosa
  Plant response rating, Ducksalad: 20
Barnyardgrass [13]
  Plant response rating, Barnyardgrass: 20
